Test results as given in patent US12049520B2, “Bicyclic peptide ligands specific for CD137” (priority 2017, dated 2024).
Entries after “also recorded” stand apart in the source; their conditions may differ.

Key:
[1] = target: T1, CD137 (Homo sapiens, UniProt Q07011); experiment: CD137 cell activity, Promega CD137 NF-κB luciferase reporter assay in Jurkat cells, antagonism of CD137L; format: cell-based; set-up: host or cells: Jurkat (CD137 Jurkat reporter cells); details: co-incubation with trimeric CD137L, FIG. 1
Experimental: The biological activity of the CD137-specific peptides was tested using the cellular CD137 luciferase reporter assay kit (Promega). The cells in this commercially available kit express luciferase that is activated down-stream of CD137. This assay can be used to assess agonism (exemplified by CD137 ligand, CD137L) and antagonism (exemplified by bicyclic peptide 74-01-04-N002).
The Promega CD137 cell-activity assay uses NF-κB luciferase luminescence as a read-out of CD137 activation in Jurkat cells. […] Dilute and then titrate down the bicyclic peptide in a sterile 96 well-plate. […] Prepare enough reagent for duplicate samples and then perform ⅓ dilution series dilution series. Include positive control CD137L and bicyclic peptide alone. […] Add 50 μl cells/well to white cell culture plate. Add 12.5 μl bicyclic peptide (at 6× final concentration) to the cells.
Co-incubate cells together with CD137L agonist and bicyclic peptide for 6 h at 37° C., 5% CO2. After 6 h thaw Bio-Glo™ and develop the assay at room-temperature. Add 75 μl Bio-Glo™ per well and incubate 5-10 min. Read luminescence signal on Pherastar plate-reader LUM plus models, gain 3600 using MARS software. Analyse data by calculating the percentage inhibition compared to CD137L alone. […]
The CD137 reporter activity was determined as NF-κB promotor driven luciferase activity.

[2] = target: T1, CD137; experiment: Fluorescence polarization competition binding assay, tracer BCY640 against CD137L, Urelumab, Utomilumab; set-up: purchased AcroBiosystems; details: BCY640 tracer at 1 nM, CD137 500 nM, FIGS. 2 and 3
Experimental: The binding site of the hCD137-specific Bicycle peptide was determined by competition experiment between a fluorescent labelled CD137 binding peptide and natural ligand CD137L, agonistic antibodies Urelumab and Utomilumab. Urelumab antibody binds to a distinct binding site while CD137L and Utomilumab both bind to the site termed the ligand-binding site.
The competitor agonists CD137L (R&D systems), Urelumab and Utomilumab were diluted in assay buffer 20 mM HEPES, 150 mM NaCl, 0.05% P20, pH7.5 to a top concentration of 500-1000 nM. The human CD137 protein (AcroBiosystems) was diluted to 500 nM final concentration in the assay. […] The assay was typically set up by adding 5 μL agonist competitor, 10 μL CD137 protein then 10 μL fluorescent peptide. The total volume of 25 μL was prepared in black walled and bottomed low binding low volume 384 well plates. Measurements were conducted on a BMG PHERAstar FS equipped with an FP 485 520 520 optic module at 25° C. with 200 flashes per well and a positioning delay of 0.1 second. Each well was measured every 5 minutes for 60 minutes. The gain was set in a well containing tracer without target protein. The mP-values at the end of the 60 minutes read were plotted against concentration of the agonists. Reduction in the mP-values indicates competition between the known agonist and the tracer peptide.

[3] = target: T1, CD137; experiment: CD137 direct binding assay (fluorescence polarisation); details: D-Alanine scan, reference BCY7151
Experimental: Affinity of the peptides of the invention for human CD137 (Ki) was determined using a fluorescence polarisation assay, in accordance with the methods disclosed in WO 2016/067035. Peptides of the invention were labelled with a fluorescent tag (fluorescein, FI) and diluted to 2.5 nM in 50 mM HEPES with 100 mM NaCl and 0.05% tween pH 7.5. CD137 protein was titrated starting at 3 μM in the same assay buffer as the peptide to assay 1 nM peptide in a total volume of 25 μL in black walled and bottomed low bind low volume 384 well plates. The assay was typically set up by adding 5 μL assay buffer, 10 μL CD137 protein then 10 μL fluorescent peptide. The concentrations of CD137 protein were 1 in 2 serial dilutions to give 12 different concentrations starting at 3 μM. Measurements were conducted on a BMG PHERAstar FS equipped with an FP 485 520 520 optic module at 25° C. with 200 flashes per well and a positioning delay of 0.1 second. Alternatively, the measurements were performed using Envision (PerkinElmer) equipped with FITC FP Dual Enh mirror, set to 30 flashes. Each well was measured every 5 minutes for 60 minutes. The gain used for analysis was determined for each tracer at the end of the 60 minutes where there was no protein in the well. The mP were fit to a standard 1:1 binding model with a quadratic equation to generate a Kd value.

T1 sequence (Q07011 24-255): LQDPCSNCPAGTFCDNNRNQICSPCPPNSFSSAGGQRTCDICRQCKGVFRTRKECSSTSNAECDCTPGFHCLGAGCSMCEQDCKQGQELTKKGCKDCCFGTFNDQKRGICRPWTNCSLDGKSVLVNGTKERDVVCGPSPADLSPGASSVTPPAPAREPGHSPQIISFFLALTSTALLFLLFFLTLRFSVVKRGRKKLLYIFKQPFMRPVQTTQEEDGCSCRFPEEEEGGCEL

ACIEEGQYCFADPYMCA [BCY592]
effect on CD137L activity in CD137 reporter cells [1]: can act as an antagonist that inhibits CD137L activity; also recorded: inhibited CD137L activity

ACIEEGQYCFADPYMCA-Sar6-K [BCY640]
binding site on CD137 by competition [2]: binds to the physiologically relevant epitope that is shared with both the natural CD137 ligand (CD137L) and CD137 antibody (Utomilumab)

[PEG3]-ACIEEaQYCFADPY(Nle)CA [BCY7297]
affinity relative to the reference peptide [3]: improved affinity
